This note sets out measurements from patent US4333944A, “8-Halo-6-phenyl-4H-s-triazolo (3,4-c) thieno 1,4-diazepin-1-ones” (Boehringer Ingelheim GmbH, priority 1977, dated 1982).

Series [1] deals with lethal effect of 125 mgm/kg of pentylene tetrazole. The series is described as follows: Pentetrazole antagonism, mouse. The series is classed as in vivo, mouse (albino, NMRI). The note with it: po, 1 h, peroral, suspension in olive oil, 125 mgm/kg pentylene tetrazole i.p. one hour after test compound, graphically determined. The procedure:
(§1) Albino mice (NMRI) having a body weight of 20 to 25 gm or albino rats (FW49) having a body weight of 140 to 200 gm were used for the tests, and the test compound was in all cases administered perorally in suspension in olive oil by means of an esophageal sound.
(§2) The pentylene tetrazole is administered intraperitoneally one hour after administration of the test compound [see M. I. Gluckmann, Curr. Ther. Res. 7, 721 (1965)].
(§3) The values shown in the following table are graphically determined.

The test system is the same in series [2]. The series is described as follows: Pentetrazole antagonism, rat. Format: in vivo, rat (albino, FW49). The note with it: po, 1 h, peroral, suspension in olive oil, 125 mgm/kg pentylene tetrazole i.p. one hour after test compound, graphically determined. The procedure: as §1, §2, §3
Series [3] deals with test animals in a conflict situation. In words: Conflict situation (inhibition of passive avoidance). Format: in vivo, rat (albino, FW49). The note with it: po; rat; peroral, suspension in olive oil; dose at which animals depress lever ten times despite signalled shock; graphically determined.
Text: as §1
Determination of the dose of the test compound (DT10) at which the test animals in a conflict situation depress a lever ten times to receive a food pellet, even though a simultaneous visual signal indicates to them that they will also receive an electrical shock at the same time [see J. Geller, Arch. Int. Pharmacodyn. 149, 243 (1964)].
as §3

Another series in a line: Acute toxicity. More on the design: species or system mouse (albino, NMRI). To be noted: in vivo, po; mouse; peroral, suspension in olive oil; graphically determined.
Text: as §1
Determination of the median lethal dose (LD50), i.e. the dose which causes 50% of the test animals to die [Litchfield and Wilcoxon, J. Phamacol. Exper. Therap. 96,99 (1949)].
as §3

By ED50 is commonly meant the dose that gives a 50% effect, or the effect in half of the subjects. Read a high ED50 as weaker potency. Usually LD50 stands for the dose expected to kill half of the subjects tested. Turning to `O=c1[nH]nc2n1-c1sc(Br)cc1C(c1ccccc1Cl)=NC2` [Example 1, 8-Bromo-6-(o-chloro-phenyl)-4H-s-triazolo[3,4-c]thieno-[2,3-e]1,4-diazepin-1-one], the values for the ED50 in series [1] and in series [2] were 0.37 mg/kg and 1.9 mg/kg, respectively. This compound also had an ED (DT10 (ten lever presses)) in series [3] of 1.25 mg/kg. This compound displayed an LD50 in “Acute toxicity” of over 2000 mg/kg.
